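How tested: cells in 96-well plates exposed to compound for 48 hours at five concentrations. Abbreviation: GI50, concentration required for 50% inhibition of growth.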 Active and inactive are the calls of the source. No stated cut-off is given here; in the data, active = GI50 up to about 1.1 µM and inactive = higher.
Legend:
Test in all cases: NCI anticancer screen, dose series, 48 h
TK-10 = system: TK-10
SK-MEL-2 = system: SK-MEL-2
SW-620 = system: SW-620
NCI-H226 = system: NCI-H226
SF-268 = system: SF-268
NCI-H460 = system: NCI-H460
HL-60 = system: HL-60
SNB-75 = system: SNB-75
HT-29 = system: HT-29
OVCAR-5 = system: OVCAR-5
DLD-1 = system: DLD-1
LOX IMVI = system: LOX IMVI
SK-MEL-5 = system: SK-MEL-5
RPMI-8226 = system: RPMI-8226
HCC 2998 = system: HCC 2998
EKVX = system: EKVX
BT-549 = system: BT-549
MDA-MB-231 = system: MDA-MB-231
Hs-578T = system: Hs-578T
MDA-MB-435 = system: MDA-MB-435

Row | Structure (SMILES) | GI50 (TK-10) | GI50 (SK-MEL-2) | GI50 (SW-620) | GI50 (NCI-H226) | GI50 (SF-268) | GI50 (NCI-H460) | GI50 (HL-60) | GI50 (SNB-75) | GI50 (HT-29) | GI50 (OVCAR-5) | GI50 (DLD-1) | GI50 (LOX IMVI) | GI50 (SK-MEL-5) | GI50 (RPMI-8226) | GI50 (HCC 2998) | GI50 (EKVX) | GI50 (BT-549) | GI50 (MDA-MB-231) | GI50 (Hs-578T) | GI50 (MDA-MB-435)
1 | C=C(Br)C(C)(Br)CCC(Br)C(C)(C)Br (configuration not stated) | 46.3 µM (inactive) | 24.5 µM (inactive) | 28.4 µM (inactive) | 35.3 µM (inactive) | 30.2 µM (inactive) | 33.7 µM (inactive) | 23.1 µM (inactive) | 28.3 µM (inactive) | 38.8 µM (inactive) | 35.5 µM (inactive) | 37 µM (inactive) | 16.5 µM (inactive) | 33.5 µM (inactive) | 21.7 µM (inactive) | – | – | – | – | – | –
2 | C[N+](C)(C)CC(=O)N/N=C(/Cc1nc2ccc(Cl)cc2nc1O)C1=NS(=O)(=O)c2cc(S(N)(=O)=O)c(Cl)cc2N1 | > 100 µM (inactive) | > 100 µM (inactive) | > 100 µM (inactive) | – | > 100 µM (inactive) | > 100 µM (inactive) | > 100 µM (inactive) | – | > 100 µM (inactive) | > 100 µM (inactive) | > 100 µM (inactive) | – | > 100 µM (inactive) | > 100 µM (inactive) | > 100 µM (inactive) | 6.75 µM (inactive) | – | – | – | –
3 | O=c1[nH]nc(-c2ccccc2)c(-c2ccccc2)c1-n1nc(-c2ccccc2)c2ccccc2c1=O | > 100 µM (inactive) | 69 µM (inactive) | 99.5 µM (inactive) | > 100 µM (inactive) | > 100 µM (inactive) | 90.6 µM (inactive) | – | > 100 µM (inactive) | 68.5 µM (inactive) | > 100 µM (inactive) | 76.7 µM (inactive) | – | > 100 µM (inactive) | 32 µM (inactive) | > 100 µM (inactive) | > 100 µM (inactive) | – | – | – | –
4 | COc1ccccc1/C=C(\NC(=O)c1ccccc1)c1nc2ccc(Cl)cc2[nH]1 | 29.2 µM (inactive) | 25.6 µM (inactive) | 29.9 µM (inactive) | 23.3 µM (inactive) | 30.3 µM (inactive) | 33.8 µM (inactive) | – | 22.4 µM (inactive) | 30.8 µM (inactive) | 38 µM (inactive) | 23.8 µM (inactive) | 37.2 µM (inactive) | 17.3 µM (inactive) | 9.64 µM (inactive) | – | 29.5 µM (inactive) | – | – | – | –
5 | CCCCCCCCCCCCCC(=O)OCC1OC(OC)C(NC(=O)N(CCCl)N=O)C(O)C1O (configuration not stated) | 37.9 µM (inactive) | 38.1 µM (inactive) | 8.79 µM (inactive) | 24.8 µM (inactive) | 7.96 µM (inactive) | 4.93 µM (inactive) | – | 8.89 µM (inactive) | 19.9 µM (inactive) | 25.6 µM (inactive) | 20.8 µM (inactive) | 10.1 µM (inactive) | 16.2 µM (inactive) | 11.4 µM (inactive) | 28.1 µM (inactive) | – | – | – | – | –
6 | COc1ccc(OC)c(CSc2ccc(OC)c(OC)c2)c1 | > 100 µM (inactive) | 49.9 µM (inactive) | > 100 µM (inactive) | > 71.4 µM (inactive) | > 100 µM (inactive) | > 100 µM (inactive) | > 50.5 µM (inactive) | 57.1 µM (inactive) | > 73.3 µM (inactive) | > 100 µM (inactive) | – | > 64.6 µM (inactive) | 45.4 µM (inactive) | > 84.7 µM (inactive) | 97.1 µM (inactive) | 62.4 µM (inactive) | > 85.1 µM (inactive) | > 93.5 µM (inactive) | > 100 µM (inactive) | > 79.4 µM (inactive)
7 | [O-][n+]1c2cc(CBr)c(CBr)cc2[n+]([O-])c2c(O)cccc21 | 6.07 µM (inactive) | 2.22 µM (inactive) | 1.56 µM (inactive) | 6.61 µM (inactive) | 2.84 µM (inactive) | 1.91 µM (inactive) | 0.388 µM (active) | 2.11 µM (inactive) | 2.01 µM (inactive) | 1.95 µM (inactive) | 1.41 µM (inactive) | 1.35 µM (inactive) | 2.1 µM (inactive) | 1.53 µM (inactive) | – | 6.05 µM (inactive) | – | – | – | –
8 | O=C(Nc1cccc([N+](=O)[O-])c1)/C(=N\NC(=O)c1ccncc1)c1nc2ccc([N+](=O)[O-])cc2nc1O | – | > 100 µM (inactive) | 77.3 µM (inactive) | 42.4 µM (inactive) | 40.7 µM (inactive) | 54 µM (inactive) | – | – | 74.1 µM (inactive) | 77.3 µM (inactive) | > 10 µM (inactive) | 27.6 µM (inactive) | 38 µM (inactive) | 49.4 µM (inactive) | 35.4 µM (inactive) | 38 µM (inactive) | – | – | – | –
9 | N/C(=N\c1ccccc1)c1ccccc1N | > 100 µM (inactive) | > 100 µM (inactive) | > 100 µM (inactive) | > 100 µM (inactive) | > 100 µM (inactive) | > 100 µM (inactive) | 31.4 µM (inactive) | 80.2 µM (inactive) | > 100 µM (inactive) | > 100 µM (inactive) | – | > 100 µM (inactive) | > 100 µM (inactive) | > 100 µM (inactive) | > 100 µM (inactive) | > 100 µM (inactive) | > 100 µM (inactive) | > 100 µM (inactive) | > 100 µM (inactive) | > 100 µM (inactive)
10 | COc1c(OC(C)C)c(OC(C)C)c2oc(=O)n3c2c1C(c1ccccc1-n1c(C)ccc1C)C=C3 (configuration not stated) | > 100 µM (inactive) | 95.9 µM (inactive) | 32.5 µM (inactive) | 17.1 µM (inactive) | 38.1 µM (inactive) | 41.9 µM (inactive) | > 100 µM (inactive) | 41.8 µM (inactive) | 12.6 µM (inactive) | > 100 µM (inactive) | – | 21.5 µM (inactive) | 98.4 µM (inactive) | 64.6 µM (inactive) | 37.9 µM (inactive) | 17.6 µM (inactive) | > 100 µM (inactive) | 45 µM (inactive) | 18.5 µM (inactive) | 35.2 µM (inactive)
11 | O=c1c2ccccc2oc2c1ccc1ncccc12 | 6.73 µM (inactive) | 27.2 µM (inactive) | 10.7 µM (inactive) | 13.3 µM (inactive) | 17.2 µM (inactive) | 3.56 µM (inactive) | 9.35 µM (inactive) | 21.3 µM (inactive) | 14.5 µM (inactive) | 1.4 µM (inactive) | – | 5.24 µM (inactive) | 11.5 µM (inactive) | 15.4 µM (inactive) | 30.4 µM (inactive) | 8.2 µM (inactive) | 17.8 µM (inactive) | 26.8 µM (inactive) | 11.9 µM (inactive) | 25.7 µM (inactive)
12 | CC(=O)O[C@@H]1[C@H](C(C)C)[C@@H](OC(C)=O)C/C(C)=C/CC[C@]2(C)O[C@@H]12 | > 100 µM (inactive) | > 100 µM (inactive) | > 100 µM (inactive) | > 100 µM (inactive) | > 100 µM (inactive) | > 100 µM (inactive) | > 100 µM (inactive) | > 100 µM (inactive) | > 100 µM (inactive) | > 100 µM (inactive) | – | > 100 µM (inactive) | > 100 µM (inactive) | > 100 µM (inactive) | > 100 µM (inactive) | > 100 µM (inactive) | > 100 µM (inactive) | > 100 µM (inactive) | > 100 µM (inactive) | > 100 µM (inactive)

Source: ChEMBL document CHEMBL1201862, “PubChem BioAssay data set” (2004)
